What was measured:
[1] = Viscosity evaluation; type: physicochemical; conditions: ICG 50 mg/ml to 75 mg/ml, WFI as the lone diluent

SMILES	solubility in WFI versus inventive diluent (lyophilized (amorphous) material)	consistency of composition [1]	solubility in WFI (non-lyophilized, crystalline material)
CC1(C)C(/C=C/C=C/C=C/C=C2\N(CCCCS(=O)(=O)O)c3ccc4ccccc4c3C2(C)C)=[N+](CCCCS(=O)(=O)[O-])c2ccc3ccccc3c21 [ICG, Indocyanine green]	comparable up to 25 mg/ml, wherein the inventive diluent is superior at concentrations above that level	paste-like consistency	
CC1(C)C(/C=C/C=C/C=C/C=C2\N(CCCCS(=O)(=O)O)c3ccc4ccccc4c3C2(C)C)=[N+](CCCCS(=O)(=O)[O-])c2ccc3ccccc3c21 [crystalline ICG, Indocyanine green]			low solubility in WFI

Reference: patent US6944493B2 (priority 1999, dated 2005)
